The values below come from patent publication US20070142392A1, “Uses of rifamycins” (ActivBiotics, Inc., priority 2005, published 2007).

Assay type in all cases: cell-based
For experiment [1], the system named is E. coli. Nature of the experiment: MIC values, E. coli (Tables 1-4).
For experiment [2], the system named is H. flu.
Experiment [3] concerns E. faecalis. Nature of the experiment: MIC values, E. faecalis (Tables 1-4).
The test system of experiment [4] is S. pneumo. Nature of the experiment: MIC values, S. pneumo. (Tables 1-4).
The test system of experiment [5] is S. aureus. Nature of the experiment: MIC values, S. aureus (Tables 1-4).

Converted amounts (≈) assume the structure as drawn.

For the compound `COC1C=COC2(C)Oc3c(C)c(O)c4c(=O)c(c5oc6cc(N7CC8C(C7)C8N(C)C)cc(O)c6nc-5c4c3C2=O)NC(=O)C(C)=CC=CC(C)C(O)C(C)C(O)C(C)C(OC(C)=O)C1C` (centres unmarked) [Compound 53], the “MIC E. coli” value in experiment [1] is over 8 µg/mL. Also, in experiment [2], the “MIC H. flu” value is 2 µg/mL (≈ 2.16 µM). Moreover, the “MIC E. faecalis” value in experiment [3] came to 4 µg/mL (≈ 4.32 µM). Moreover, the “MIC S. pneumo.” value in experiment [4] was determined as 0.008 µg/mL (≈ 0.00865 µM). Further, in experiment [5], the “MIC S. aureus” value was 0.06 µg/mL (≈ 0.0649 µM).
As for `CO[C@H]1/C=C/O[C@@]2(C)Oc3c(C)c(O)c4c(=O)c(c5oc6cc(N7CCC(c8ccccc8)CC7)cc(O)c6nc-5c4c3C2=O)NC(=O)/C(C)=C\C=C\[C@H](C)[C@H](O)[C@@H](C)[C@@H](O)[C@@H](C)[C@H](OC(C)=O)[C@@H]1C` [Compound 57], in experiment [1], the “MIC E. coli” value is 8 µg/mL (≈ 8.33 µM). Further, the “MIC H. flu” value in experiment [2] came to 0.5 µg/mL (≈ 0.521 µM). Moreover, the “MIC E. faecalis” value in experiment [3] amounted to 2 µg/mL (≈ 2.08 µM). In addition, in experiment [4], the “MIC S. pneumo.” value was 0.0005 µg/mL (≈ 0.000521 µM). The “MIC S. aureus” value in experiment [5] turned out to be 0.008 µg/mL (≈ 0.00833 µM).
In the same order, the values of `CCOC(=O)NCC1CCN(c2cc(O)c3nc4c5c6c7c(C)c(O)c5c(=O)c(c-4oc3c2)NC(=O)/C(C)=C\C=C\[C@H](C)[C@H](O)[C@@H](C)[C@@H](O)[C@@H](C)[C@H](O)[C@H](C)[C@@H](OC)/C=C/O[C@@](C)(O7)C6=O)CC1` [Compound 60] are over 8 µg/mL, 0.06 µg/mL (≈ 0.0636 µM), 0.5 µg/mL (≈ 0.53 µM), 0.0005 µg/mL (≈ 0.00053 µM) and 0.008 µg/mL (≈ 0.00848 µM).
In the same order, the values of `CCCNC(=O)NC1CCN(c2cc(O)c3nc4c5c6c7c(C)c(O)c5c(=O)c(c-4oc3c2)NC(=O)/C(C)=C\C=C\[C@H](C)[C@H](O)[C@@H](C)[C@@H](O)[C@@H](C)[C@H](OC(C)=O)[C@H](C)[C@@H](OC)/C=C/O[C@@](C)(O7)C6=O)CC1` [Compound 28] are over 8 µg/mL, 0.25 µg/mL (≈ 0.254 µM), 1 µg/mL (≈ 1.02 µM), 0.002 µg/mL (≈ 0.00203 µM) and 0.03 µg/mL (≈ 0.0305 µM).
Taken in the same sequence, the figures for `COC1C=COC2(C)Oc3c(C)c(O)c4c(=O)c(c5oc6cc(N7CC8CCCNC8C7)cc(O)c6nc-5c4c3C2=O)NC(=O)C(C)=CC=CC(C)C(O)C(C)C(O)C(C)C(O)C1C` (centres unmarked) [Compound 7] were over 8 µg/mL, 4 µg/mL (≈ 4.53 µM), 4 µg/mL (≈ 4.53 µM), 0.004 µg/mL (≈ 0.00453 µM) and 0.12 µg/mL (≈ 0.136 µM).
Turning to `CCOc1c(N2CCN(CC3CC3)CC2)ccc2nc3c4c5c6c(C)c(O)c4c(=O)c(c-3oc12)NC(=O)/C(C)=C\C=C\[C@H](C)[C@H](O)[C@@H](C)[C@@H](O)[C@@H](C)[C@H](O)[C@H](C)[C@@H](OC)/C=C/O[C@@](C)(O6)C5=O` [Compound 108], the “MIC E. coli” value in experiment [1] is over 8 µg/mL. The “MIC H. flu” value in experiment [2] was 1 µg/mL (≈ 1.08 µM). For the same compound, the “MIC E. faecalis” value in experiment [3] was 0.5 µg/mL (≈ 0.54 µM). Also, the “MIC S. pneumo.” value in experiment [4] worked out at 0.015 µg/mL (≈ 0.0162 µM). Also, the “MIC S. aureus” value in experiment [5] turned out to be 0.03 µg/mL (≈ 0.0324 µM).
Taken in the same sequence, the figures for `CO[C@H]1/C=C/O[C@@]2(C)Oc3c(C)c(O)c4c(=O)c(c5oc6cc(N7CCN(CCF)CC7)cc(O)c6nc-5c4c3C2=O)NC(=O)/C(C)=C\C=C\[C@H](C)[C@H](O)[C@@H](C)[C@@H](O)[C@@H](C)[C@H](O)[C@@H]1C` [Compound 105] were 8 µg/mL (≈ 9 µM), 0.12 µg/mL (≈ 0.135 µM), 0.12 µg/mL (≈ 0.135 µM), 0.001 µg/mL (≈ 0.00112 µM) and 0.004 µg/mL (≈ 0.0045 µM).
In the same order, the values of `CO[C@H]1/C=C/O[C@@]2(C)Oc3c(C)c(O)c4c(=O)c(c5oc6cc(N7CCC(C)(NC(C)=O)CC7)cc(O)c6nc-5c4c3C2=O)NC(=O)/C(C)=C\C=C\[C@H](C)[C@H](O)[C@@H](C)[C@@H](O)[C@@H](C)[C@H](OC(C)=O)[C@@H]1C` [Compound 72] are over 8 µg/mL, 0.5 µg/mL (≈ 0.524 µM), 2 µg/mL (≈ 2.09 µM), 0.00025 µg/mL (≈ 0.000262 µM) and 0.008 µg/mL (≈ 0.00838 µM).
As to `CCOc1c(N2CCN(CCOC)CC2)ccc2nc3c4c5c6c(C)c(O)c4c(=O)c(c-3oc12)NC(=O)/C(C)=C\C=C\[C@H](C)[C@H](O)[C@@H](C)[C@@H](O)[C@@H](C)[C@H](O)[C@H](C)[C@@H](OC)/C=C/O[C@@](C)(O6)C5=O` [Compound 96], in experiment [1], the “MIC E. coli” value is over 8 µg/mL. Besides, in experiment [2], the “MIC H. flu” value turned out to be 0.5 µg/mL (≈ 0.538 µM). The “MIC E. faecalis” value in experiment [3] came to 1 µg/mL (≈ 1.08 µM). Further, the “MIC S. pneumo.” value in experiment [4] was determined as 0.005 µg/mL (≈ 0.00538 µM). The “MIC S. aureus” value in experiment [5] came out at 0.015 µg/mL (≈ 0.0161 µM).
In the same order, the values of `CCOC(=O)NC1CCN(c2ccc3nc4c5c6c7c(C)c(O)c5c(=O)c(c-4n(C)c3c2)NC(=O)/C(C)=C\C=C\[C@H](C)[C@H](O)[C@@H](C)[C@@H](O)[C@@H](C)[C@H](O)[C@H](C)[C@@H](OC)/C=C/O[C@@](C)(O7)C6=O)CC1` [Compound 31] are 8 µg/mL (≈ 8.64 µM), 0.25 µg/mL (≈ 0.27 µM), 0.25 µg/mL (≈ 0.27 µM), 0.0005 µg/mL (≈ 0.00054 µM) and 0.03 µg/mL (≈ 0.0324 µM).
Taken in the same sequence, the figures for `CCOC(=O)NC1CCN(c2cc(O)c3nc4c5c6c7c(C)c(O)c5c(=O)c(c-4oc3c2)NC(=O)/C(C)=C\C=C\[C@H](C)[C@H](O)[C@@H](C)[C@@H](O)[C@@H](C)[C@H](OC(C)=O)[C@H](C)[C@@H](OC)/C=C/O[C@@](C)(O7)C6=O)CC1` [Compound 1] were over 8 µg/mL, 2 µg/mL (≈ 2.06 µM), 2 µg/mL (≈ 2.06 µM), 0.00025 µg/mL (≈ 0.000257 µM) and 0.008 µg/mL (≈ 0.00824 µM).
For `CCCC(=O)NC1CCN(c2cc(O)c3nc4c5c6c7c(C)c(O)c5c(=O)c(c-4oc3c2)NC(=O)/C(C)=C\C=C\[C@H](C)[C@H](O)[C@@H](C)[C@@H](O)[C@@H](C)[C@H](OC(C)=O)[C@H](C)[C@@H](OC)/C=C/O[C@@](C)(O7)C6=O)CC1` [Compound 24], the “MIC E. coli” value in experiment [1] was over 8 µg/mL. The “MIC H. flu” value in experiment [2] is 2 µg/mL (≈ 2.06 µM). Further, the “MIC E. faecalis” value in experiment [3] turned out to be 2 µg/mL (≈ 2.06 µM). Moreover, in experiment [4], the “MIC S. pneumo.” value came out at 0.001 µg/mL (≈ 0.00103 µM). The “MIC S. aureus” value in experiment [5] came out at 0.015 µg/mL (≈ 0.0155 µM).
For `CO[C@H]1/C=C/O[C@@]2(C)Oc3c(C)c(O)c4c(=O)c(c5sc6cc(N7CCOCC7)ccc6nc-5c4c3C2=O)NC(=O)/C(C)=C\C=C\[C@H](C)[C@H](O)[C@@H](C)[C@@H](O)[C@@H](C)[C@H](O)[C@@H]1C` [Compound 132], in experiment [1], the “MIC E. coli” value was found to be 4 µg/mL (≈ 4.74 µM). The “MIC H. flu” value in experiment [2] amounted to 0.06 µg/mL (≈ 0.0711 µM). Further, the “MIC E. faecalis” value in experiment [3] amounted to 0.5 µg/mL (≈ 0.592 µM). Besides, the “MIC S. pneumo.” value in experiment [4] stood at 0.001 µg/mL (≈ 0.00118 µM). Besides, in experiment [5], the “MIC S. aureus” value was 0.015 µg/mL (≈ 0.0178 µM).
On to `CCOC(=O)N1CCCC2CN(c3cc(O)c4nc5c6c7c8c(C)c(O)c6c(=O)c(c-5oc4c3)NC(=O)C(C)=CC=CC(C)C(O)C(C)C(O)C(C)C(OC(C)=O)C(C)C(OC)C=COC(C)(O8)C7=O)CC21` (centres unmarked) [Compound 40], for which the “MIC E. coli” value in experiment [1] is over 8 µg/mL. Moreover, the “MIC H. flu” value in experiment [2] amounted to 0.5 µg/mL (≈ 0.501 µM). Also, the “MIC E. faecalis” value in experiment [3] stood at 1 µg/mL (≈ 1 µM). The “MIC S. pneumo.” value in experiment [4] turned out to be 0.008 µg/mL (≈ 0.00802 µM). Also, the “MIC S. aureus” value in experiment [5] stood at 0.06 µg/mL (≈ 0.0602 µM).
Regarding `CO[C@H]1/C=C/O[C@@]2(C)Oc3c(C)c(O)c4c(=O)c(c5oc6cc(N7CCN(CCO)CC7)cc(O)c6nc-5c4c3C2=O)NC(=O)/C(C)=C\C=C\[C@H](C)[C@H](O)[C@@H](C)[C@@H](O)[C@@H](C)[C@H](O)[C@@H]1C` [Compound 101], the “MIC E. coli” value in experiment [1] came to 8 µg/mL (≈ 9.02 µM). Besides, the “MIC H. flu” value in experiment [2] was 0.25 µg/mL (≈ 0.282 µM). Also, the “MIC E. faecalis” value in experiment [3] is 0.12 µg/mL (≈ 0.135 µM). The “MIC S. pneumo.” value in experiment [4] worked out at 0.0005 µg/mL (≈ 0.000564 µM). Further, the “MIC S. aureus” value in experiment [5] turned out to be 0.008 µg/mL (≈ 0.00902 µM).
Taken in the same sequence, the figures for `COC1C=COC2(C)Oc3c(C)c(O)c4c(=O)c(c5sc6cc(N7CC(C)N(CC8CC8)CC7C)ccc6nc-5c4c3C2=O)NC(=O)C(C)=CC=CC(C)C(O)C(C)C(O)C(C)C(O)C1C` (centres unmarked) [Compound 70] were over 8 µg/mL, 1 µg/mL (≈ 1.08 µM), 1 µg/mL (≈ 1.08 µM), 0.001 µg/mL (≈ 0.00108 µM) and 0.03 µg/mL (≈ 0.0324 µM).
With `CCOC(=O)NC1CCN(c2ccc3nc4c5c6c7c(C)c(O)c5c(=O)c(c-4n(C)c3c2)NC(=O)/C(C)=C\C=C\[C@H](C)[C@H](O)[C@@H](C)[C@@H](O)[C@@H](C)[C@H](OC(C)=O)[C@H](C)[C@@H](OC)/C=C/O[C@@](C)(O7)C6=O)CC1` [Compound 19], the “MIC E. coli” value in experiment [1] came out at 4 µg/mL (≈ 4.13 µM). Also, the “MIC H. flu” value in experiment [2] was found to be 0.25 µg/mL (≈ 0.258 µM). Further, in experiment [3], the “MIC E. faecalis” value stood at 0.06 µg/mL (≈ 0.062 µM). Besides, in experiment [4], the “MIC S. pneumo.” value amounted to 0.001 µg/mL (≈ 0.00103 µM). In addition, in experiment [5], the “MIC S. aureus” value turned out to be 0.004 µg/mL (≈ 0.00413 µM).
In the same order, the values of `CO[C@H]1/C=C/O[C@@]2(C)Oc3c(C)c(O)c4c(=O)c(c5oc6cc(N7CCC(NC(C)=O)CC7)cc(O)c6nc-5c4c3C2=O)NC(=O)/C(C)=C\C=C\[C@H](C)[C@H](O)[C@@H](C)[C@@H](O)[C@@H](C)[C@H](O)[C@@H]1C` [Compound 43] are over 8 µg/mL, 0.5 µg/mL (≈ 0.556 µM), 2 µg/mL (≈ 2.22 µM), 0.002 µg/mL (≈ 0.00222 µM) and 0.03 µg/mL (≈ 0.0334 µM).
In the same order, the values of `COC1C=COC2(C)Oc3c(C)c(O)c4c(=O)c(c5oc6cc(N7CCN8CCCC8C7)cc(O)c6nc-5c4c3C2=O)NC(=O)C(C)=CC=CC(C)C(O)C(C)C(O)C(C)C(O)C1C` (centres unmarked) [Compound 87] are 4 µg/mL (≈ 4.53 µM), 0.25 µg/mL (≈ 0.283 µM), 0.03 µg/mL (≈ 0.034 µM), 0.00025 µg/mL (≈ 0.000283 µM) and 0.002 µg/mL (≈ 0.00226 µM).
